Patent US20100317630A1, “NOVEL HETEROCYCLIC COMPOUNDS AS MGLU5 ANTAGONISTS” (RECORDATI IRELAND LIMITED, priority 2009, published 2010)

Key:
mGlu5 receptor = target: T1, mGlu5 receptor (Rattus norvegicus, UniProt P31424); experiment: Radioligand binding assay at metabotropic glutamate receptor 5 in rat brain ([3H]MPEP, forebrain membranes); conditions: 4 nM [3H]MPEP, read-out: affinity (Ki) for mGlu5 receptor
T1 construct: from tissue; host or cells: forebrain (cortex, striatum and hippocampus) of male Sprague Dawley rats
Procedure: Radioligand Binding Assay at metabotropic glutamate receptor 5 in rat brain.
a) Membrane preparation: male Sprague Dawley rats (200-300 g, Charles River, Italy) were killed by cervical dislocation and the forebrain (cortex, striatum and hippocampus) was homogenized (2×20 sec) in 50 vols of cold 50 mM Tris buffer pH 7.4, using a Politron homogenizer (Kinematica). Homogenates were centrifuged at 48000×g for 15 min, resuspended in 50 vols of the same buffer, incubated at 37° C. for 15 min and centrifuged and resuspended two more times. The final pellets were frozen and stored at −80° C. until use.
b) Binding assay: pellets from rat forebrain were resuspended in 100 vols of 20 mM HEPES, 2 mM MgCl2, 2 mM CaCl2, pH 7.4. The membranes were incubated in a final volume of 1 ml for 60 min at 25° C. with 4 nM [^3H]MPEP in the absence or presence of competing drugs. Non-specific binding was determined in the presence of 10 μM MPEP (Spooren W. et al., Trends Pharmacol Sci. 22, 331-337, 2001). The incubation was stopped by the addition of cold Tris buffer pH 7.4 and rapid filtration through 0.5% polyethyleneimine pretreated Filtermat 1204-401 (Wallac) filters. The filters were then washed with cold buffer and the radioactivity retained on the filters was counted by liquid scintillation spectrometry. […]

conscious rats = experiment: Effect on cystometry in conscious rats (bladder volume capacity); assay type: in vivo, rat
Procedure: Male Sprague-Dawley rats [Crl: CD® (SD) IGS BR] of 300-400 g b.w. supplied by Charles River Italia were used. The animals were housed with free access to food and water and maintained on a forced 12-hour-light/12-hour-dark cycle at 22-24° C. of temperature, except during the experiment. To quantify urodynamic parameters in conscious rats, cystometrographic studies were performed according to the procedure previously reported (Guarneri et al., Pharmacol. Res. 24: 175, 1991).
Briefly, the rats were anaesthetised by intraperitoneal administration of 3 ml/kg of Equithensin solution (pentobarbital 30 mg/kg and chloral hydrate 125 mg/kg) and placed in a supine position. An approximately 10 mm long midline incision was made in the shaved and cleaned abdominal wall. The urinary bladder was gently freed from adhering tissues, emptied and then cannulated via an incision in the bladder body, using a polyethylene cannula (0.58 mm internal diameter, 0.96 mm external diameter) which was permanently sutured with silk thread. […]
On the day of the experiment, the rats were placed in modified Bollman cages, i.e., restraining cages that were large enough to permit the rats to adopt a normal crouched posture, but narrow enough to prevent turning around. […] The intraluminal-pressure signal during infusion of saline into the bladder (cystometrogram) was continuously recorded on a polygraph (Rectigraph-8K San-ei with BM614/2 amplifier from Biomedica Mangoni) or stored on PC by data acquisition system (PowerLab, Chart 4 software, AD Instruments). From the cystometrogram, bladder volume capacity (BVC) was evaluated. […] Basal BVC value was evaluated as the mean of the values observed in the cystometrograms recorded in an initial period of 30-60 minutes. […] The bladder infusion restarted and changes in BVC were evaluated from the mean values obtained in the cystometrograms observed during 1, 2, and 3 hours after treatment. […]
Each experimental group was composed of 4-11 animals. All data were expressed as mean±standard error. […]

T1 sequence (P31424 21-1203): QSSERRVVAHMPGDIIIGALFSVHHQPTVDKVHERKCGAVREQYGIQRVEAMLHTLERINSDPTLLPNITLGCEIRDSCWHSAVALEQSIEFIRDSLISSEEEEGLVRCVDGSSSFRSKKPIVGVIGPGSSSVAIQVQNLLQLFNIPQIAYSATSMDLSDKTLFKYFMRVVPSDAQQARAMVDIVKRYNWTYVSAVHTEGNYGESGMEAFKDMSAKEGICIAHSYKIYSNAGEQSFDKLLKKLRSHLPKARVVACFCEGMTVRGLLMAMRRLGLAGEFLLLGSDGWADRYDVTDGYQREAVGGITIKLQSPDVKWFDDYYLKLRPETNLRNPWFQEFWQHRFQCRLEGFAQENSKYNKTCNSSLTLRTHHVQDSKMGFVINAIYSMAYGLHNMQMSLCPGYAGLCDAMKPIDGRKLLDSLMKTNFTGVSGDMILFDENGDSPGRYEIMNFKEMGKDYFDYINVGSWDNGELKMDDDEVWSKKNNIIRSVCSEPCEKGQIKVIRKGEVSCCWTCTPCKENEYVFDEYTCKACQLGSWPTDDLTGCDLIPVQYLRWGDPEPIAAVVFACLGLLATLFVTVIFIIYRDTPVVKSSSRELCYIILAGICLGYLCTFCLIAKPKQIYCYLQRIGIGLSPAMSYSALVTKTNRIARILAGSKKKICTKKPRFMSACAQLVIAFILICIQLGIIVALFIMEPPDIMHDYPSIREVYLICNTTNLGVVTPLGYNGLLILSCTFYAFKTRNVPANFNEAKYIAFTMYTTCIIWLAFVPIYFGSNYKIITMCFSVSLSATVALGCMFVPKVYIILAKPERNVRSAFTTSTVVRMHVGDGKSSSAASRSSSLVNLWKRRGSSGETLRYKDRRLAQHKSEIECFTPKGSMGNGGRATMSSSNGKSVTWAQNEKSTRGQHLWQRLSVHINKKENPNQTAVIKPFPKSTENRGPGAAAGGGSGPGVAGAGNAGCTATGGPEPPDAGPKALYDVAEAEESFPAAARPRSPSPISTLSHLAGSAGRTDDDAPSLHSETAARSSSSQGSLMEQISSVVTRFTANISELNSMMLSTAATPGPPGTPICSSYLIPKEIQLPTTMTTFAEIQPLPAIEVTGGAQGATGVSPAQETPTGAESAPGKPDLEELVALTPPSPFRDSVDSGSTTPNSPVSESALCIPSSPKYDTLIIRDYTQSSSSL

Ki (mGlu5 receptor)	SMILES	increase of bladder volume capacity (conscious rats; 1 mg/kg orally)	increase of bladder volume capacity (conscious rats; 3 mg/kg orally, statistically significant from the vehicle group after 3 hours from treatment)	MED (Minimal Effective Dose that induces statistically significant increase of bladder volume capacity) (conscious rats; oral)
1.42 nM	Cc1ccc([N+](=O)[O-])c(N2CCC(=C/C=C/c3ccccc3)CC2)n1 [Example 1, 6-Methyl-3-nitro-2-[4-[(E)-3-phenylprop-2-enylidene]-1-piperidyl]pyridine]	–	–	–
–	Cc1nc(C#Cc2cccnc2)cs1 [MTEP]	slight increase	sustained increase	3
